Laboratory results taken from US7267815B2, “Methods and reagents for the enhancement of virus transduction in the bladder epithelium” (priority 2002, dated 2007).
Structures can show the parent of a compound that is named as a salt. Where two headings read alike, the source gives them in different places.

Key:
[1] = tested on: Ad5-LacZ adenovirus; experiment: Study #2: compatibility of Ad5-LacZ with ethanol (plaque assay); format: physicochemical; settings: higher concentrations of ethanol (i.e., ≧10%)
Method: For this study, each sample was incubated at 37° C. before the plaque assay started.

[2] = tested on: bladder epithelium
Method: A study was conducted to evaluate the effect of ethanol pretreatment on adenovirus-mediated gene transfer and expression in the bladder epithelium of rodents.
Ad-βgal virus was made as a frozen formulation using standard conditions known in the art for freezing and formulation of adenovirus. The vehicle for the virus arm was PBS plus 10% glycerol.
80 female BALB/c mice were used for this study. Female animals are chosen because of the ease of urethral cannulation and vesicle instillation. The mice were approximately 10 to 12 weeks on the day of the start of the experiment.
Animals were anesthetized with isoflurane and a 24 g catheter introduced through the urethra into the bladder.
Residual urine was emptied and the bladder was flushed 3 times with 100-150 μl each of PBS.
Ad-βgal viruses diluted in 0.1 ml of PBS-10% glycerol were administered intravesically into the bladder and retained in the bladder for 45 minutes. A knot was placed around the urethral orifice to prevent leakage of the virus and to prevent the catheter from dislodging.
Treatment was stopped by withdrawing the virus and flushing the bladders 3 times with 100-150 μl of PBS. […]
Animals were killed 48 hours after treatment. […] Transgene expression in the luminal epithelium of the longitudinally opened bladders was empirically determined.

[3] = tested on: Ad5-LacZ adenovirus; experiment: Study #1: compatibility of Ad5-LacZ with ethanol and urine (plaque assay); format: physicochemical; settings: 40% ethanol, 37° C. one hour
Method: In this study, each sample was incubated at 37° C. for one hour before the plaque assay started.

[4] = tested on: bladder epithelium; experiment: Transduction efficacy of exemplary pretreatment agents (summary Table 7); format: in vivo, mouse; settings: pretreatment agent
[5] = tested on: bladder epithelium; experiment: Effect of chemical agent pretreatment on adenovirus-mediated gene transfer and expression (Ad-βgal, X-gal staining); format: in vivo, mouse (BALB/c); settings: for effect on transduction (in words): bladder pretreatment followed by Ad-LacZ
Method: 152 female BALB/c mice were used this study.
The route of administration of the chemical agent and virus was intravesical.
3. Based on the reagent being tested, bladder pretreatment was performed as follows:
Poloxomer 407 procedure: Washed 2 times with 100 μl each. Retained the 3rd wash for 5 min and gave one additional wash. Performed 3 times PBS wash prior to virus instillation.
Poloxomer 188 procedure: Washed 2 times with 100 μl each. Retained the 3rd wash for 5 minutes and gave one additional wash. Performed 3 times PBS wash prior to virus instillation.
Lipofectamine 2000 procedure: Added 5 μl of stock Lipofectamine (1 mg/ml) to 195 μl of PBS-10% glycerol. Mixed with an equal volume of Ad-βgal virus and incubated for 15 minutes. Administered 100 μl of the mixture intravesically and retained in the bladder for 30 minutes.
Benzyl Alcohol procedure: Washed 2 times with 100 μl each. Retained the 3rd wash for 15 minutes and then gave one additional wash. Performed 3 times PBS wash prior to virus instillation.
Performed 3 times PBS wash prior to virus instillation.
Polidocanol procedure: Washed 2 times with 100 μl each. Retained the 3rd wash for 5 min and then gave one additional wash. Performed 3 times PBS wash prior to virus instillation.
DC-Cho procedure: Washed 2 times with 100 μl each. Retained the 3rd wash for 5 min and then gave one additional wash. Performed 3 times PBS wash prior to virus instillation.
0.4% HPMC 2910 procedure: No pretreatment. An equal volume of the virus was mixed with 0.8% solution of HPMC2910 and the mixture was instilled into the bladder for 30 minutes.
100 mg/ml Poly-Lysine procedure: No pretreatment. An equal volume of the virus was mixed with 100 mg/ml solution of Poly-Lysine and the mixture was instilled into the bladder for 30 minutes.
0.4% polyvinyl alcohol (PVA) procedure: No pretreatment. An equal volume of the virus was mixed with 0.8% solution of PVA and the mixture was instilled into the bladder for 30 minutes.
n-dodecyl-β-D glucopyranoside procedure: Washed 2 times with 100 μl each. Retained the 3rd wash for 5 min and then gave one additional wash. Performed 3 times PBS wash prior to virus instillation.
0.4% PVP procedure: No pretreatment. An equal volume of the virus was mixed with 0.8% solution of PVP and the mixture was instilled into the bladder for 30 min.
0.1% cholesterol-cyclodextrin reagent procedure: No pretreatment. An equal volume of the virus was mixed with 0.2% solution of Cholesterol-Cyclodextrin and the mixture was instilled into the bladder for 30 minutes.
n-dodecyl-β-D-maltoside procedure: Washed 2 times with 100 μl each. Retained the 3rd wash for 5 min and then gave one additional wash. Performed 3 times PBS wash prior to virus instillation.
Sodium salt of dodecyl benzenesulfonic acid procedure: Washed 2 times with 100 μl each. Retained the 3rd wash for 5 min and then gave one additional wash. Performed 3 times PBS wash prior to virus instillation.
0.1% sodium dodecyl sulphate procedure: Wash 2 times with 100 μl each. Retained the 3rd wash for 5 min and then gave one additional wash. Performed 3 times PBS wash prior to virus instillation.
0.1% Tween 20 procedure: Washed 2 times with 100 μl each. Retained the 3rd wash for 5 min and then gave one additional wash. Performed 3 times PBS wash prior to virus instillation.
0.1% Triton® X-100 procedure: Washed 2 times with 100 μl each. Retained the 3rd wash for 5 min and then gave one additional wash. Perform 3 times PBS wash prior to virus instillation.
0.1% Forlan C-24 procedure: Washed 2 times with 100 μl each. Retained the 3rd wash for 5 min and then gave one additional wash. Performed 3 times PBS wash prior to virus instillation.
0.1% decyl-b-D-maltoside procedure: Washed 2 times with 100 μl each. Retained the 3rd wash for 5 min and then gave one additional wash. Performed 3 times PBS wash prior to virus instillation.
0.1% 6-cyclohexylhexyl-b-D-maltoside procedure: Washed 2 times with 100 μl each. […]

[6] = tested on: bladder; experiment: Histopathology of bladders after chemical agent pretreatment (pathologists report); format: in vivo, mouse (BALB/c)
From the text: Bladders fixed in whole organ fixative were sectioned and stained with hematoxylin-eosin for histologic examination.

[7] = tested on: adenovirus; experiment: Study #3: compatibility of adenovirus with selected enhancers (plaque assay); format: physicochemical
Method: For this study, each sample was incubated at 37° C. or 25° C. before the plaque assay started.

[8] = tested on: SD rat bladder epithelium; experiment: Adenovirus dose titration with SDS or DDM pretreatment; format: in vivo, Sprague Dawley Rat; settings: 0.1% pretreatment
From the text: All the animals had >90% in Ad-βgal gene expression in mice bladder. Adenovirus Dose Titration with Different Chemical Agents Pretreatment on SD Rat Bladder Epithelium • Species: Female Sprague Dawley Rat (Taconic Laboratory)—2/group • Study Design: To test the virus infectivity of rat bladder epithelium with different doses of Adenovirus following the pretreatment with SDS or DDM. This study also explored relationship between bladder volume and residual of SDS or DDM for adenovirus infectivity. • Dose/Route:
Rat bladders infected with 4×10^10 vp adenovirus achieved >90% Ad-βgal gene expression levels whereas rat bladders infected with 4×10^9 vp adenovirus had Ad-βgal gene expression levels range from 30% to 50%. […] Efficacy of Dodecyl-β-D-Maltoside as a Pretreatment Agent Prior to Adenovirus Infection of Mice Bladder Urothelium • Species: Female Balb/c Mouse (Taconic Laboratory)—2/group • Study Design: To test DDM from two different suppliers as pretreatment agents to enhance the adenovirus infection of mice bladder urothelium in a large group of animals. • Dose/Route: […]

[9] = tested on: adenovirus (Ad-LacZ); experiment: Study #5: adenovirus stability after incubation with 0.1% SDS or 0.1% DDM (plaque assay); format: physicochemical; settings: 0.1% solution, one hour at 25° C. or 37° C.
Method: In this study, adenovirus (Ad-LacZ) preparations (1.0×10^12 vp/ml) were mixed with solutions of SDS or DDM to obtain a mixture of adenovirus and each of these surfactants. […] These samples were incubated at 25° C. or 37° C. for one hour before freezing. They were sent to assay services for plaque assay analysis.

[10] = tested on: adenovirus; experiment: Study #4: degradation of adenovirus by SDS (anion exchange chromatography); format: physicochemical; settings: 37° C.
Method: A series of experiments were preformed on samples of adenovirus incubated at 37° C. for 15-30 minutes in various concentrations of SDS. The resulting material was examined by anion exchange chromatography.

[11] = 0.02% pre-treatment for 5 minutes
[12] = 0.05% pre-treatment for 5 minutes
[13] = 0.2% pre-treatment for 5 minutes

Molecule | Transduction Efficacy [4] | response class (level of transduction) [5] | effect on transduction (in words) [5] | other results
CCO [ethanol] |  |  |  | effect on adenovirus (in words) [1]: partial to complete inactivation of adenovirus; transduction ([2]; 15%, 20%, 25%, and 30 wt. % ethanol pretreatment for 20 minutes, then Ad-βgal 45 min, 48 hours): 10-20%; transduction ([2]; ethanol percentage as high as 30%, reference pre-treatment): 10-20%; effect on the virus (in words) [3]: inactivated most of the virus
CCCCCCCCCCCCCOC1OC(CO)C(OC2OC(CO)C(O)C(O)C2O)C(O)C1O [n-Tridecyl-β-D-Maltoside] | +++ (“+++” means 50-75% transduction efficacy) |  |  | 
CCCCCCCCCCCCCCO[C@@H]1O[C@H](CO)[C@@H](O[C@H]2O[C@H](CO)[C@@H](O)[C@H](O)[C@H]2O)[C@H](O)[C@H]1O [n-Tetradecyl-β-D-Maltoside] | ++ (“++” means 25-50% transduction efficacy) |  |  | 
sucrose monolaurate | ++++ (“++++” means >75% transduction efficacy) |  |  | 
CCCCCCCCCCO[C@@H]1O[C@H](CO)[C@@H](O[C@H]2O[C@H](CO)[C@@H](O)[C@H](O)[C@H]2O)[C@H](O)[C@H]1O [n-decyl-β-D-maltoside] | + (“+” means 10-25% transduction efficacy) | weak responders (had significantly less stained area compared to the ethanol control group) | only a slight effect on transduction | 
polyethyleneglycoldodecyl ether [polidocanol, reference compound] | ++ (“++” means 25-50% transduction efficacy) | strongest response |  | transduction of the urothelium [5, 11]: 10-20%; transduction of the urothelium [5, 12]: 30-40%; transduction of the urothelium [5, 13]: 50-80%; pathologists report [6, 11]: intact mucosa; pathologists report [6, 12]: minimal submucosal edema; pathologists report [6, 13]: erosions and focal ulcer as well as mucosal compromise; Average pfu/mL ([7]; 25° C., 2 hours): 1.02E+10 pfu/mL; Ratio vp/pfu ([7]; 25° C., 2 hours): 21 vp/pfu; Average pfu/mL ([7]; 37° C., 1 hour): 1.22E+10 pfu/mL; Ratio vp/pfu ([7]; 37° C., 1 hour): 17 vp/pfu; compatibility with the adenovirus (in words) ([7]; under the experimental conditions of Table 5): compatible with the adenovirus
CCCCCCCCCCCCO[C@H]1O[C@H](CO)[C@@H](O[C@H]2O[C@H](CO)[C@@H](O)[C@H](O)[C@H]2O)[C@H](O)[C@H]1O [n-Dodecyl-α-D-Maltoside, n-dodecyl-α-D-maltoside] | ++++ (“++++” means >75% transduction efficacy) |  |  | 
CCCCCCCCCCCCc1ccc(S(=O)(=O)[O-])cc1.[Na+] [sodium salt of dodecyl-benzenesulfonic acid] | + (“+” means 10-25% transduction efficacy) | strongest response | enhanced the transduction of Ad-LacZ in murine bladders | transduction of the urothelium [5, 13]: 20-40%
Triton X-100 | + (“+” means 10-25% transduction efficacy) | weak responders (had significantly less stained area compared to the ethanol control group) | found to enhance transduction | 
CCCCCCCCCCCCO[C@@H]1O[C@H](CO)[C@@H](O)[C@H](O)[C@H]1O [n-dodecyl-β-D-glucopyranoside] |  |  | little or no enhancement of transduction | 
CCCCCCCCCCOS(=O)(=O)[O-].[Na+] [Sodium decyl sulfate] | + (“+” means 10-25% transduction efficacy) |  |  | 
OC[C@H]1O[C@H](O[C@H]2[C@H](O)[C@@H](O)[C@H](OCCCCCCC3CCCCC3)O[C@@H]2CO)[C@H](O)[C@@H](O)[C@@H]1O [6-cyclohexylhexyl-β-D-maltoside] | ++++ (“++++” means >75% transduction efficacy) | strongest response | increased transduction significantly | 
CCCCCCCCCCCCOS(=O)(=O)O [Sodium dodecyl sulfate, sodium dodecyl sulfate] | ++++ (“++++” means >75% transduction efficacy) | strongest response |  | removal of GAG layer of bladder epithelium [8]: effective to remove GAG layer of bladder epithelium; effect on adenovirus (in words) [9]: will inactivate the virus; degradation of the virus (AEX) ([10]; SDS above or equal to 0.025%, 15-30 minutes): will rapidly degrade the virus; particle quality or quantity by AEX method ([10]; SDS at 0.0125%, 30 minutes of incubation): did not reduce the particle quality or quantity
